Columns and labels:
[1] = target: T1, purified recombinant human PARP (Homo sapiens, UniProt P09874); assay: PARP enzyme assay (IC50); assay type: biochemical; details: approximate values
T1 construct: purchased Trevigan (Gaithersburg, Md.)
Protocol: A convenient method to determine IC50 of a PARP inhibitor compound is a PARP assay using purified recombinant human PARP from Trevigan (Gaithersburg, Md.), as follows: The PARP enzyme assay is set up on ice in a volume of 100 microliters consisting of 100 mM Tris-HCl (pH 8.0), 1 mM MgCl2, 28 mM KCl, 28 mM NaCl, 0.1 mg/ml of DNase I activated herring sperm DNA (Sigma, Mo.), 3.0 micromolar [3H]nicotinamide adenine dinucleotide (470 mci/mmole), 7 micrograms/ml PARP enzyme, and various concentrations of the compounds to be tested. The reaction is initiated by incubating the mixture at 25° C. After 15 minutes of incubation, the reaction is terminated by adding 500 microliters of ice cold 20% (w/v) trichloroacetic acid. The precipitate formed is transferred onto a glass fiber filter (Packard Unifilter-GF/B) and washed three times with ethanol. After the filter is dried, the radioactivity is determined by scintillation counting.

P388D1 cells = assay: H2O2 induced cell death assay (cytoprotective effect, LDH release); assay type: cell-based, murine; details: Mus musculus, approximate values, concentration for 50% reduction of cell death, 2 mM H2O2, 4 h
Protocol: We used a H2O2 induced cell death assay to determine the cytoprotective effect of PARP inhibitors. P388D1 cells (CCL-46, ATCC), derived from a murine macrophage-like tumor, were maintained in Dulbeco's Modified Eagle Medium (DMEM) with 10% horse serum and 2 mM L-glutamine. The cytotoxicity assay was set up in a 96-well plate. In each well, 190 ul cells were seeded at 2×10^6/ml density. To determine the EC50, the concentration of a compound required to achieve 50% reduction of cell death, a dose response experiment was conducted. PARP inhibitors were added to the media to a final concentration of 0.01, 0.03, 0.1, 0.3, 1, 3, 10, 30 uM. After 15 min incubation with a PARP inhibitor, 5 ul of freshly prepared H2O2 were added to the cells to a final concentration of 2 mM. Cells were returned to 37° C. incubator for 4 h. At the end of incubation, 25 ul of supernatant were sampled from the cell media to determine the level of lactate dehydrogenase (LDH) released from dead cells. The LDH activity was determined by monitoring the rate of decrease of NADH absorbency at 340 nm. The group without drug treatment was used to calculate total cell death due to H2O2 treatment. Each data point was an average of quadruplicate. The EC50 was determined from a dose response curve.

T1 sequence (P09874 whole entry): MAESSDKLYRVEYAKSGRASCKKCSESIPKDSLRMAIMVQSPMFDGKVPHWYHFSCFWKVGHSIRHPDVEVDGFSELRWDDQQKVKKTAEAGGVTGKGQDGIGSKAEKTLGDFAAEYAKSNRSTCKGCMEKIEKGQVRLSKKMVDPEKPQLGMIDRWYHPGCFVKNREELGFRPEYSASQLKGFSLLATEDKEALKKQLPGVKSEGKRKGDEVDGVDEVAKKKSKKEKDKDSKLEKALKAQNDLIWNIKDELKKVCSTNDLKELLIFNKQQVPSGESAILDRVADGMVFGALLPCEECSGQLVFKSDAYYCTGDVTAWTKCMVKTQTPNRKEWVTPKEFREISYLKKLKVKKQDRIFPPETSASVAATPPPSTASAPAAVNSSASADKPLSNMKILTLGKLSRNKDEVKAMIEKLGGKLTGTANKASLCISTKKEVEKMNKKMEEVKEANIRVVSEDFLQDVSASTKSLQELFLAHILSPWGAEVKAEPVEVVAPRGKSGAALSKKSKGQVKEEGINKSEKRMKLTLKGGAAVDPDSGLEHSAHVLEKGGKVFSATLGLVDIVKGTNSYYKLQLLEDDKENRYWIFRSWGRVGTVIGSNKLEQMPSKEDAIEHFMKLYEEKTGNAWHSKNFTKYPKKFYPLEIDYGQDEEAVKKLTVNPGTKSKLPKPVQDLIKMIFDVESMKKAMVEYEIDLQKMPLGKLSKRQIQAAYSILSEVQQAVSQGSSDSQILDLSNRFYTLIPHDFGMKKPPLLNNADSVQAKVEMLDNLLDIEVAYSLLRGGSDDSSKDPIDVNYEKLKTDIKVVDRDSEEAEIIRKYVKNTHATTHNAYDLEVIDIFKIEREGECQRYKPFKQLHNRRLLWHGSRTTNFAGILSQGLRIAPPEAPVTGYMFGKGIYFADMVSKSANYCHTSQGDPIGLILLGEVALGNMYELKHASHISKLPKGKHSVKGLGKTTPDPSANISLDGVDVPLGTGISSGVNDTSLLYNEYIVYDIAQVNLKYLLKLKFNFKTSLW

Row | Compound | IC50 ([1]; Table I) | EC50 (P388D1 cells; Table I) | IC50 ([1]; Table II) | EC50 (P388D1 cells; Table II)
1 | NNC(=O)C1=CNc2c(Cl)ccc3c(=O)[nH]nc1c23 | 0.749 µM | – | – | –
2 | O=c1[nH]nc2c3c(cccc13)NC=N2 | 0.039 µM | 0.35 µM | – | –
3 | NNC(=O)C1=CNc2cccc3c(=O)[nH]nc1c23 | 0.014 µM | 0.1 µM | – | –
4 | NNC(=O)C1=Cc2n[nH]c(=O)c3ccc(NN)c(c23)N1 | 2.79 µM | – | – | –
5 | NNC(=O)C1=Cc2n[nH]c(=O)c3cccc(c23)N1 | 0.026 µM | 0.51 µM | – | –
6 | O=C(O)C1=Cc2n[nH]c(=O)c3cccc(c23)N1 | 0.16 µM | 1.7 µM | – | –
7 | NC1=Nc2n[nH]c(=O)c3cccc(c23)N1 | 0.091 µM | 0.64 µM | – | –
8 | NNC(=O)C1=Nc2n[nH]c(=O)c3cccc(c23)N1 | 0.021 µM | 0.24 µM | – | –
9 | CC1=Cc2n[nH]c(=O)c3ccc(Cl)c(c23)N1 | 0.12 µM | – | – | –
10 | O=c1[nH]nc2c3c(cccc13)NC(CO)=N2 | 0.026 µM | 0.36 µM | – | –
11 | O=c1[nH]nc2c3c(cccc13)NC(CNCCCc1ccccc1)=N2 | 0.087 µM | 0.01 µM | – | –
12 | CN(C)CC1=Nc2n[nH]c(=O)c3cccc(c23)N1 | 0.019 µM | 0.13 µM | – | –
13 | O=c1[nH]nc2c3c(cccc13)NC(CN1CCCCC1)=N2 | 0.019 µM | 0.12 µM | – | –
14 | O=c1[nH]nc2c3c(cccc13)NC(CN1CCCC1)=N2 | 0.018 µM | – | – | –
15 | O=c1[nH]nc2c3c(cccc13)N=C(CN1CCOCC1)N2 | 0.018 µM | – | – | –
16 | CC(=O)OC(C(=O)O)C(OC(C)=O)C(=O)NCc1ccc2c(c1)-c1n[nH]c(=O)c3cccc(c13)O2 (stereo not shown) | – | – | 0.035 µM | 2.08 µM
17 | NCc1ccc2c(c1)-c1n[nH]c(=O)c3cccc(c13)O2 | – | – | 0.019 µM | 2.08 µM
18 | O=c1[nH]nc2c3c(cccc13)Oc1ccc(CN3CCOCC3)cc1-2 | – | – | 0.067 µM | 0.3 µM

Row | Compound | IC50 ([1]; Table I) | EC50 (P388D1 cells; Table I) | IC50 ([1]; Table II) | EC50 (P388D1 cells; Table II)
19 | O=C(NCc1ccc2c(c1)-c1n[nH]c(=O)c3cccc(c13)O2)C1CCCN1 (stereo not shown) | – | – | 0.03 µM | 0.08 µM
20 | N=C(N)NCc1ccc2c(c1)-c1n[nH]c(=O)c3cccc(c13)O2 | – | – | 0.035 µM | 1 µM
21 | CCN1CCN(Cc2ccc3c(c2)-c2n[nH]c(=O)c4cccc(c24)O3)CC1 | – | – | 0.06 µM | 0.12 µM
22 | O=c1[nH]nc2c3c(cccc13)Oc1ccc(CN3CCN(CCO)CC3)cc1-2 | – | – | 0.101 µM | 0.08 µM
23 | O=c1[nH]nc2c3c(cccc13)Oc1ccc(CN3CCN(CCOCCO)CC3)cc1-2 | – | – | 0.128 µM | 0.075 µM
24 | NOCc1ccc2c(c1)-c1n[nH]c(=O)c3cccc(c13)O2 | – | – | 0.165 µM | 0.47 µM
25 | O=c1[nH]nc2c3c(cccc13)Oc1ccc(CO)cc1-2 | – | – | 0.092 µM | 0.41 µM
26 | O=C(CCP(=O)(OCc1ccccc1)OCc1ccccc1)OCc1ccc2c(c1)-c1n[nH]c(=O)c3cccc(c13)O2 | – | – | 0.413 µM | –
27 | O=C(CCl)OCc1ccc2c(c1)-c1n[nH]c(=O)c3cccc(c13)O2 | – | – | 0.177 µM | –
28 | O=C(O)c1ccc2c(c1)-c1n[nH]c(=O)c3cccc(c13)O2 | – | – | 0.167 µM | –
29 | CCOP(=O)(NCc1ccc2c(c1)-c1n[nH]c(=O)c3cccc(c13)O2)OCC | – | – | 0.275 µM | –
30 | O=c1[nH]nc2c3c(cccc13)Oc1ccc(COP(=O)(O)O)cc1-2 | – | – | 0.034 µM | 0.75 µM
31 | CN(C)c1ccc(/N=N/c2ccc(S(=O)(=O)NCc3ccc4c(c3)-c3n[nH]c(=O)c5cccc(c35)O4)cc2)cc1 | – | – | 1.3 µM | –
32 | C=COC(=O)c1ccc2c(c1)-c1n[nH]c(=O)c3cccc(c13)O2 | – | – | 0.089 µM | –
33 | O=c1[nH]nc2c3c(cccc13)Oc1ccc(CN3CCNCC3)cc1-2 | – | – | 0.048 µM | 0.27 µM
34 | O=c1[nH]nc2c3c(cccc13)Oc1ccc(CN(CCO)CCO)cc1-2 [drawing 52] | – | – | 0.038 µM | –
35 | CN(C)CC(=O)OCc1ccc2c(c1)-c1n[nH]c(=O)c3cccc(c13)O2 [drawing 54] | – | – | 0.125 µM | –
36 | O=c1[nH]nc2c3c(cccc13)Oc1ccc(CN3CCC(N4CCCC4)CC3)cc1-2 [drawing 63] | – | – | – | 0.3 µM

Source: patent US20120309717A1, “COMPOUNDS, METHODS AND PHARMACEUTICAL COMPOSITIONS FOR INHIBITING PARP” (EISAI INC., priority 2003, published 2012)
